Measurements from patent US10472369B2, “Crystalline forms of (6-(1H-indazol-6-yl)-N-[4-(4-(4-morpholinyl)phenyl]imidazo[1,2-A]pyrazin-8-amine) methanesulfonate” (Crystal Pharmatech Co., Ltd., priority 2016, dated 2019).
≈ marks a conversion by molar mass, not a printed value. Blank lines part the entries; values can stand above or below the compound they belong to.

Tests used:
[1] = Particle size distribution (PSD), laser particle size analyzer, wet process; assay type: physicochemical; details: dispersion medium Isopar G
Method: The particle size distribution test in the present disclosure is acquired by the S3500 laser particle size analyzer of Microtrac. Microtrac S3500 is equipped with the Sample Delivery Controller. The test is carried out by wet process, and the dispersion medium is Isopar G. The parameters are as follow:
D10: The D10 describes the diameter where 10% of the distribution has a smaller particle size.
D50: The D50 describes the diameter where 50% of the distribution has a smaller particle size. The median is also called D50.
D90: The D90 describes the diameter where 90% of the distribution has a smaller particle size. Unless otherwise specified, the following examples were conducted at room temperature.

[2] = Hygroscopicity by dynamic vapor sorption (DVS); assay type: physicochemical; details: for Weight gain 10% RH / Weight gain 20% RH / Weight gain 30% RH / Weight gain 40% RH / Weight gain 50% RH / Weight gain 60% RH: DVS 0-95%-0 RH cycle at 25° C.
Method: Dynamic Vapor Sorption (DVS) is measured via a SMS (Surface Measurement Systems Ltd.) intrinsic DVS. Its control software is DVS-Intrinsic control software, and its analysis software is DVS-Intrinsic Analsis software. Typical Parameters for DVS test are as follows:
Gas and flow rate: N2, 200 mL/min
RH range: 0% RH to 95% RH
Hygroscopicity of form III was measured in dynamic vapor sorption (DVS) instrument using 7.34 mg of form III obtained from example 6. The DVS plot is shown in FIG. 20, and the weight gain of form III at 80% RH is 6.48%.
6.5 mg of prior form 7 was placed in a DVS instrument, and subjected to a cycle of 0-95%-0RH at 25° C., the DVS plot is shown in FIG. 23.
9.2 mg of Form I was placed in a DVS instrument, and subjected to a cycle of 0-95%-0RH at 25° C., the DVS plot is shown in FIG. 24.
3.6 mg of Form II was placed in a DVS instrument and subjected to a cycle of 0-95%-0RH at 25° C., the DVS plot is shown in FIG. 25.

[3] = Solubility of saturated solutions in acetone and tetrahydrofuran by HPLC; details: saturated solution, after 24 hours
[4] = Storage stability (purity and XRPD crystalline form after storage); assay type: physicochemical
Method: Form II obtained from example 3 was stored under 25° C./60% RH for 90 days. XRPD patterns were collected before and after stored for 15 days, 30 days and 90 days.
Form III was stored under 25° C./60% RH and 40° C./75% RH for 300 days. XRPD patterns were collected after stored for 15 days, 30 days and 300 days.

[5] = Slurry/stirring in H2O/IPA solvent systems with different water activities, final form by XRPD; assay type: physicochemical; details: 6 days
Method: Prior form 7 as starting material was stirred at room temperature in solvent systems with different water activities for 6 days, and tested.
Prior form 3 was stirred at room temperature in solvent systems with different water activities for 4 days, then the solid was tested.

[6] = cited from earlier work
[7] = listed as Form I of the present disclosure
[8] = listed as Form II of the present disclosure

D(10) [1, 7]: 10.23 μm | D(50) [1, 7]: 62.54 μm | D(90) [1, 7]: 240.0 μm | Weight gain 10% RH [2, 7]: 0.69% | Weight gain 20% RH [2, 7]: 0.99% | Weight gain 30% RH [2, 7]: 1.33% | Weight gain 40% RH [2, 7]: 1.82% | Weight gain 50% RH [2]: 2.82% | Weight gain 60% RH [2, 7]: 8.13% | Solubility ([3]; Acetone): 61 µg/mL (≈ 148 µM) | Solubility ([3]; Tetrahydrofuran): 48 µg/mL (≈ 117 µM)
SMILES: c1cn2cc(-c3ccc4cn[nH]c4c3)nc(Nc3ccc(N4CCOCC4)cc3)c2n1 [Form I, 6-(1H-indazol-6-yl)-N-[4-(4-morpholinyl)phenyl] imidazo [1,2-a]pyrazin-8-amine]

D(10) [1, 8]: 4.15 μm | D(50) [1, 8]: 27.48 μm | D(90) [1, 8]: 128.7 μm | Weight gain 10% RH [2, 8]: 1.41% | Weight gain 20% RH [2, 8]: 1.98% | Weight gain 30% RH [2, 8]: 2.34% | Weight gain 40% RH [2, 8]: 2.65% | Weight gain 50% RH [2, 8]: 2.95% | Weight gain 60% RH [2, 8]: 3.35% | weight gain at 0-70% RH (in words) ([2]; DVS at 25° C., 0-70% RH): doesn't show obvious weight gain | Solubility ([3]; Acetone): 26 µg/mL (≈ 63.2 µM) | Solubility ([3]; Tetrahydrofuran): 18 µg/mL (≈ 43.7 µM) | Crystalline form after storage ([4]; 25° C./60%RH, 15 days): Form II | Purity % ([4]; 25° C./60%RH, 15 days): 99.50% | Crystalline form after storage ([4]; 25° C./60%RH, 30 days): Form II | Purity % ([4]; 25° C./60%RH, 30 days): 99.78% | Crystalline form after storage ([4]; 25° C./60%RH, 90 days): Form II | Purity % ([4]; 25° C./60%RH, 90 days): 99.52% | Crystalline form after storage ([4]; 25° C./60%RH, initial): Form II | Purity % ([4]; 25° C./60%RH, initial): 99.64%
SMILES: c1cn2cc(-c3ccc4cn[nH]c4c3)nc(Nc3ccc(N4CCOCC4)cc3)c2n1 [Form II, 6-(1H-indazol-6-yl)-N-[4-(4-morpholinyl)phenyl] imidazo [1,2-a]pyrazin-8-amine]

weight gain at 80% RH ([2]; DVS, 25° C., 80% RH): 6.48% | crystalline form after DVS test (XRPD) ([2]; solid collected after DVS): doesn't change | Crystalline form after storage ([4]; 25° C./60%RH, 15 days): Form III | Purity % ([4]; 25° C./60%RH, 15 days): 99.71% | Crystalline form after storage ([4]; 25° C./60%RH, 30 days): Form III | Purity % ([4]; 25° C./60%RH, 30 days): 99.78% | Crystalline form after storage ([4]; 25° C./60%RH, 300 days): Form III | Purity % ([4]; 25° C./60%RH, 300 days): 99.56% | Crystalline form after storage ([4]; 25° C./60%RH, initial): Form III | Purity % ([4]; 25° C./60%RH, initial): 99.82% | Crystalline form after storage ([4]; 40° C./75%RH, 15 days): Form III | Purity % ([4]; 40° C./75%RH, 15 days): 99.68% | Crystalline form after storage ([4]; 40° C./75%RH, 30 days): Form III | Purity % ([4]; 40° C./75%RH, 30 days): 99.73% | Crystalline form after storage ([4]; 40° C./75%RH, 300 days): Form III | Purity % ([4]; 40° C./75%RH, 300 days): 99.47% | Crystalline form after storage ([4]; 40° C./75%RH, initial): Form III | Purity % ([4]; 40° C./75%RH, initial): 99.82%
SMILES: c1cn2cc(-c3ccc4cn[nH]c4c3)nc(Nc3ccc(N4CCOCC4)cc3)c2n1 [Form III, 6-(1H-indazol-6-yl)-N-[4-(4-morpholinyl)phenyl] imidazo [1,2-a]pyrazin-8-amine]

D(10) [1]: 3.41 μm | D(50) [1]: 9.37 μm | D(90) [1]: 37.69 μm | Weight gain 10% RH [2]: 1.68% | Weight gain 20% RH [2]: 2.78% | Weight gain 30% RH [2]: 4.61% | Weight gain 40% RH [2]: 10.04% | Weight gain 40% RH ([2]; listed as prior form 7): 10% | Weight gain 50% RH [2]: 11.00% | Weight gain 60% RH [2]: 11.83% | Final crystalline form ([5]; H2O/IPA = 1:99, water activity 0.12, room temperature): Form III of the present | Final crystalline form ([5]; H2O/IPA = 3:97, water activity 0.3, room temperature): Form III of the present | Final crystalline form ([5]; H2O/IPA = 6:94, water activity 0.5, room temperature): Form III of the present | Final crystalline form ([5]; H2O/IPA = 11:89, water activity 0.7, room temperature): Form III of the present | Final crystalline form ([5]; H2O/IPA = 23:77, water activity 0.9, room temperature): Form III of the present | Final crystalline form in all experiments ([5]; all water activities, room temperature): converted to form III
SMILES: CS(=O)(=O)O.CS(=O)(=O)O.c1cn2cc(-c3ccc4cn[nH]c4c3)nc(Nc3ccc(N4CCOCC4)cc3)c2n1 [Prior form 7, reference compound]
weight gain at 80% RH (prior crystalline forms) ([6]; 80% RH): ~20% | hygroscopicity under various humidity conditions ([6]; various humidity conditions): very high
